Experimental data from patent US10117942B2, “Photoactivatable lipid-based nanoparticles as vehicles for dual agent delivery” (The United States of America, as represented by the …, priority 2013, dated 2018).

Tests used:
[1] = at physiological pH; cited from earlier work
[2] = 0.5 mg or 2.5 mg liposomal lipid
Method: As a control, mice were injected with doxorubicin in the absence of liposomes.

SMILES | log P [1] | organ uptake (fluorescence Ex=500, Em=600) [2]
CCCCCCOC(C)c1c(C)c2cc3nc(c4c5[nH]c(cc6nc(cc1[nH]2)C(C)=C6CC)c(C)c5C(=O)C4)[C@@H](CCC(=O)O)[C@@H]3C (some centres unmarked) [HPPH, 2-[1-hexyloxyethyl]-2-devinyl pyropheophorbide-a] | 5.6 | 
COc1cccc2c1C(=O)c1c(O)c3c(c(O)c1C2=O)C[C@@](O)(C(=O)CO)C[C@@H]3O[C@H]1C[C@H](N)[C@H](O)[C@H](C)O1 [doxorubicin] |  | no fluorescence was observed
